Measured values taken from publication PMC12207590, “Substrate Specificity of the Organic Cation Transporters MATE1 and MATE2K and Functional Overlap with OCT1 and OCT2” (Journal of Medicinal Chemistry, 2025).
Where two headings read alike, the source gives them in different places.

Tests used:
[1] = target: T1, MATE1 (Homo sapiens, UniProt Q96FL8); assay: Uptake ratio in MATE1-overexpressing HEK293 cells vs empty vector (2.5 μM, 1 min, HPLC-MS/MS); assay type: cell-based; details: for MATE1: uptake ratio MATE1-overexpressing vs empty-vector HEK293 cells, mean
T1 sequence (Q96FL8 1-570): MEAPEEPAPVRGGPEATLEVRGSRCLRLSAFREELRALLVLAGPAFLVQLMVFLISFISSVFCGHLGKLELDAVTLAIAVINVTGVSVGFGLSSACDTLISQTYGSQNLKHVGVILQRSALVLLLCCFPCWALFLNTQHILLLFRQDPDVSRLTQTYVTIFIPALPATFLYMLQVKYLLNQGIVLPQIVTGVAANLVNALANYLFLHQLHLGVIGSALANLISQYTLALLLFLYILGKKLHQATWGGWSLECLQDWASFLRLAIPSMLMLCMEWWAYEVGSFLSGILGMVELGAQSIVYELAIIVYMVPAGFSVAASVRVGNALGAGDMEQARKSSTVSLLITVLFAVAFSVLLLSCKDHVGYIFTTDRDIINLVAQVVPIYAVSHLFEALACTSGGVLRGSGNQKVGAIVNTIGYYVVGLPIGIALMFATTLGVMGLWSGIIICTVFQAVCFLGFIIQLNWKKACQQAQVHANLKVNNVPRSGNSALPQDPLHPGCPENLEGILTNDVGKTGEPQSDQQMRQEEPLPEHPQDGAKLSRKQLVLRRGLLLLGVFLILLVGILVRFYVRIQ

[2] = target: MATE2K (Homo sapiens, UniProt Q86VL8); assay: Uptake ratio in MATE2K-overexpressing HEK293 cells vs empty vector (2.5 μM, 1 min, HPLC-MS/MS); assay type: cell-based
[3] = fold uptake over empty vector, 2.5 μM, 1 min
[4] = uptake ratio MATE2K-overexpressing vs empty-vector HEK293 cells, 2.5 μM, 1 min, mean
[5] = mean ratio of uptake in MATE1-overexpressing HEK293 cells vs empty vector, 2.5 μM, 1 min
[6] = mean ratio of uptake in MATE2K-overexpressing HEK293 cells vs empty vector, 2.5 μM, 1 min

Chain of MATE2K (Q86VL8 1-566 isoform Q86VL8-3): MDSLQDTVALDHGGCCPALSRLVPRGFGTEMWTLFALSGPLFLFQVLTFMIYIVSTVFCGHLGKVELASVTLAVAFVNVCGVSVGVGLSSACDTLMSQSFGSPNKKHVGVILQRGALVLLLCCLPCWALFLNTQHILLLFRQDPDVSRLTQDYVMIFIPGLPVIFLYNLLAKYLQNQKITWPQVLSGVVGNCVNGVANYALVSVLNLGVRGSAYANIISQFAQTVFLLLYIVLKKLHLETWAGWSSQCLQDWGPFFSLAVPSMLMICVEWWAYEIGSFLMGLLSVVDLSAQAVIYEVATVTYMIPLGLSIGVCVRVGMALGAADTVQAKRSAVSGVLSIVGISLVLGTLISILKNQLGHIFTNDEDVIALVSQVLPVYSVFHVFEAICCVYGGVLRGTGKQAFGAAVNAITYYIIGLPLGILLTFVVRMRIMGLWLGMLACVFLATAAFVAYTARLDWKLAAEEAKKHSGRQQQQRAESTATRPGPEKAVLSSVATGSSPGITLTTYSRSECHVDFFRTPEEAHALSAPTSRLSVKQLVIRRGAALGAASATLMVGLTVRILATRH

CNCC(=O)O [Sarcosine]
MATE1 ratio [1, 3]: 0.76
MATE1 ([1]; 2.5 μM, 1 min): 0.76
MATE2K ratio [2, 3]: 1.01
MATE2 [2, 4]: 1.01

N=C(N)N1Cc2ccccc2C(O)C1 (stereo not drawn) [4-Hydroxydebrisoquine]
MATE1 ratio [1, 3]: 9.59
MATE1 (uptake ratio) [1, 5]: 9.59
MATE2K ratio [2, 3]: 3.34
MATE2 (uptake ratio) [2, 6]: 3.34

N=C(N)NC(=N)Nc1ccc(Cl)cc1 [1-(4-Chlorophenyl)biguanide]
MATE1 (uptake ratio) [1]: 6.97
MATE1 ratio [1]: 6.97
MATE2 (uptake ratio) [2]: 3.82
MATE2K ratio [2]: 3.82

C[N+]1(C)CCCC(OC(=O)C(O)(c2ccccc2)c2ccccc2)C1.[Br-] (stereo not drawn) [Mepenzolate]
MATE1 ratio [1, 3]: 23.89
MATE2K ratio [2, 3]: 1.72

CC(C)NCC(O)c1ccc(O)c(O)c1 (stereo not drawn) [Isoprenaline]
MATE1 ratio [1, 3]: 16.78
MATE2K ratio [2, 3]: 4.67

CC(C)N(CCC(C(N)=O)(c1ccccc1)c1ccccn1)C(C)C (stereo not drawn) [Disopyramide]
MATE1 ratio [1, 3]: 1.26
MATE2K ratio [2, 3]: 1.21

CCCCNC(=N)NC(=N)N [Buformin]
MATE1 (uptake ratio) [1]: 24.8
MATE1 ratio [1]: 24.80
MATE2 (uptake ratio) [2]: 2.37
MATE2K ratio [2]: 2.37

COc1ccc2c3c([nH]c2c1)C(C)=NCC3 [Harmaline]
MATE1 ratio [1]: 1.19
MATE2K ratio [2]: 1.15

CC1(C)OC[C@@H](COC(=O)CCc2ccc(OC[C@@H](O)CNCCNC(=O)N3CCOCC3)cc2)O1 [Landiolol]
MATE1 ratio [1, 3]: 3.68
MATE2K ratio [2, 3]: 2.87

CC(C)(C)c1ccc(C(O)CCCN2CCC(C(O)(c3ccccc3)c3ccccc3)CC2)cc1 (stereo not drawn) [Terfenadine]
MATE1 ([1]; 2.5 μM, 1 min): 1.07
MATE2 [2, 4]: 0.93

NCCCC[C@H](N)C(=O)O [Lysine]
MATE1 ratio [1]: 1.13
MATE2K ratio [2]: 1.05

CC(C[N+](C)(C)C)OC(N)=O (stereo not drawn) [Bethanechol]
MATE1 ratio [1, 3]: 0.23
MATE1 (uptake ratio) [1, 5]: 0.23
MATE2K ratio [2, 3]: 0.97
MATE2 (uptake ratio) [2, 6]: 0.97

CC1(C)C[C@@H]1C(=O)N/C(=C\CCCCSC[C@H](N)C(=O)O)C(=O)O [Cilastatin]
MATE1 (uptake ratio) [1]: 1.13
MATE1 ratio [1]: 1.13
MATE2 (uptake ratio) [2]: 0.96
MATE2K ratio [2]: 0.96

O=C(NCC1CCCCN1)c1cc(OCC(F)(F)F)ccc1OCC(F)(F)F (stereo not drawn) [Flecainide]
MATE1 ratio [1, 3]: 1.13
MATE2K ratio [2, 3]: 1.19

Cc1ncc(C[n+]2csc(CCOP(=O)(O)O)c2C)c(N)n1 [Thiamine monophosphate]
MATE1 ([1]; 2.5 μM, 1 min): 1.05
MATE2 [2, 4]: 0.89

CCNC(C)Cc1ccc2c(c1)OCO2 (stereo not drawn) [Methylenedioxyethamphetamine]
MATE1 ratio [1]: 1.07
MATE2K ratio [2]: 1.39

Cn1nnc2c(C(N)=O)ncn2c1=O [Temozolomide]
MATE1 ([1]; 2.5 μM, 1 min): 1.03
MATE2 [2, 4]: 1.1

CC(C)NCC(O)COc1cccc2ccccc12 [Propranolol (R), Propranolol]
MATE1 ([1]; 2.5 μM, 1 min): 1.16
MATE2 [2, 4]: 1.04

CCC1(C2=NCCN2)Cc2ccccc2O1 (stereo not drawn) [Efaroxan]
MATE1 ratio [1, 3]: 1.38
MATE2K ratio [2, 3]: 1.72

CC/C(=C(\c1ccc(O)cc1)c1ccc(OCCNC)cc1)c1ccccc1 [Endoxifen]
MATE1 ratio [1, 3]: 1.30
MATE2K ratio [2, 3]: 1.21

O=S(=O)(c1cccc2cnccc12)N1CCCNCC1 [Fasudil]
MATE1 ratio [1, 3]: 1.50
MATE2K ratio [2, 3]: 1.80

Cn1c(=O)[nH]c2nc[nH]c2c1=O [1-Methylxanthine]
MATE1 (uptake ratio) [1]: 1.08
MATE1 ratio [1]: 1.08
MATE2 (uptake ratio) [2]: 0.96
MATE2K ratio [2]: 0.96

CN(CCN1CCC(OC(=O)Nc2ccccc2-c2ccccc2)CC1)C(=O)c1ccc(CN2CCC(C(N)=O)CC2)cc1 [Revefenacin]
MATE1 ratio [1, 3]: 1.39
MATE1 ([1]; 2.5 μM, 1 min): 1.39
MATE2K ratio [2, 3]: 1.17
MATE2 [2, 4]: 1.17

NCCc1c[nH]c2ccc(O)cc12 [Serotonin]
MATE1 ratio [1, 3]: 12.11
MATE1 ([1]; 2.5 μM, 1 min): 12.11
MATE2 [2]: 2.26
MATE2K ratio [2]: 2.26

OCCc1ccccc1
MATE1 ratio [1, 3]: 1.39
MATE2K ratio [2, 3]: 1.20

CCS(=O)(=O)N1CC(CC#N)(n2cc(-c3ncnc4[nH]ccc34)cn2)C1 [Baricitinib]
MATE1 ratio in this study ([1]; Table S1, 2.5 μM, 1 min): 0.82
MATE1 ratio [1, 3]: 0.82
MATE1 (uptake ratio) [1, 5]: 0.82
MATE2K ratio in this study ([2]; Table S1, 2.5 μM, 1 min): 1.04
MATE2K ratio [2, 3]: 1.04
MATE2 (uptake ratio) [2, 6]: 1.04

CCC(Cc1ccc2c(c1)OCO2)NC (stereo not drawn) [2-Methylamino-1-(3,4-methylendioxyphenyl)butan]
MATE1 (uptake ratio) [1]: 1.35
MATE1 ratio [1]: 1.35
MATE2 (uptake ratio) [2]: 1.24
MATE2K ratio [2]: 1.24

CCCC(=O)OC(CC(=O)[O-])C[N+](C)(C)C (stereo not drawn) [Butyrylcarnitine]
MATE1 ratio [1, 3]: 0.82
MATE1 (uptake ratio) [1, 5]: 0.82
MATE2K ratio [2, 3]: 1.09
MATE2 (uptake ratio) [2, 6]: 1.09

Oc1ncnc2[nH]ncc12 [Allopurinol]
MATE1 ratio [1, 3]: 1.08
MATE1 (uptake ratio) [1, 5]: 1.08
MATE2K ratio [2, 3]: 0.85
MATE2 (uptake ratio) [2, 6]: 0.85

OC(c1ccccc1)(c1ccccc1)C12CC[N+](CCOCc3ccccc3)(CC1)CC2 [Umeclidinium]
MATE1 ([1]; 2.5 μM, 1 min): 4.54
MATE2 [2, 4]: 1.67

CNS(=O)(=O)CCc1ccc2[nH]cc(C3CCN(C)CC3)c2c1 [Naratriptan]
MATE1 ratio [1, 3]: 10.81
MATE2K ratio [2, 3]: 8.34

CC(C1=C(CCN(C)C)Cc2ccccc21)c1ccccn1 (stereo not drawn) [Dimethindene]
MATE1 ratio [1, 3]: 0.99
MATE2K ratio [2, 3]: 1.02

CC(N)Cc1cccc(C(F)(F)F)c1 (stereo not drawn) [Norfenfluramine (+), Norfenfluramine]
MATE1 ratio [1]: 1.22
MATE2K ratio [2]: 1.45

NNCCc1ccccc1 [Phenelzine]
MATE1 ratio [1, 3]: 1.58
MATE2K ratio [2, 3]: 1.91

CC(=O)OC1CN2CCC1CC2 (stereo not drawn) [Aceclidine]
MATE1 (uptake ratio) [1]: 1.26
MATE1 ratio [1]: 1.26
MATE2 (uptake ratio) [2]: 1.08
MATE2K ratio [2]: 1.08

COc1cc2c(cc1OC)[C@@]13CCN4CC5=CCO[C@H]6CC(=O)N2[C@H]1[C@H]6[C@H]5C[C@H]43 [Brucine]
MATE1 (uptake ratio) [1]: 1.13
MATE1 ratio [1]: 1.13
MATE2 (uptake ratio) [2]: 1.3
MATE2K ratio [2]: 1.30

COc1ccc(CCN)cc1O [4-Methoxy-m-tyramine]
MATE1 (uptake ratio) [1]: 3.09
MATE1 ratio [1]: 3.09
MATE2 (uptake ratio) [2]: 1.19
MATE2K ratio [2]: 1.19

CCCCNc1cc(C(=O)O)cc(S(N)(=O)=O)c1Oc1ccccc1 [Bumetanide]
MATE1 ratio [1, 3]: 2.02
MATE1 (uptake ratio) [1, 5]: 2.02
substrate of MATE1 ([1]; organic anions tested): substrates of MATE1
MATE2K ratio [2, 3]: 1.18
MATE2 (uptake ratio) [2, 6]: 1.18

Cc1ccc(C23CNCC2C3)cc1 (stereo not drawn) [Bicifadine]
MATE1 ratio [1, 3]: 1.17
MATE1 (uptake ratio) [1, 5]: 1.17
MATE2K ratio [2, 3]: 1.31
MATE2 (uptake ratio) [2, 6]: 1.31

CC[C@H]1OC(=O)[C@H](C)[C@@H](O[C@H]2C[C@@](C)(OC)[C@@H](O)[C@H](C)O2)[C@H](C)[C@@H](O[C@@H]2O[C@H](C)C[C@H](N(C)C)[C@H]2O)[C@](C)(OC)C[C@@H](C)C(=O)[C@H](C)[C@@H](O)[C@]1(C)O [Clarithromycin]
MATE1 ratio [1, 3]: 1.21
MATE1 (uptake ratio) [1, 5]: 1.21
MATE2K ratio [2, 3]: 1.31
MATE2 (uptake ratio) [2, 6]: 1.31

COc1ccc2[nH]cc(C[C@H](N)C(=O)O)c2c1
MATE1 ratio [1, 3]: 0.89
MATE2K ratio [2, 3]: 1.10
